{
  "source": "ChEMBL document CHEMBL5303573",
  "about": "“Mapping human microbiome drug metabolism by gut bacteria and their genes” (Nature, 2019)",
  "key": {"[1]": {"assay": "The drug is tested on Enterococcus faecalis strain: V583 for biotransformation. The drug concentrations were measured before and after a 12-h incubation by liquid-chromatography-coupled mass spectrometry (LC–MS)", "settings": "2 µM"}, "[2]": {"assay": "The drug is tested on Clostridium ramosum strain: DSM1402 for biotransformation. The drug concentrations were measured before and after a 12-h incubation by liquid-chromatography-coupled mass spectrometry (LC–MS)", "settings": "thomasclavelia ramosa, 2 µM"}, "[3]": {"assay": "The drug is tested on Bacteroides xylanisolvens strain: DSM18836 for biotransformation. The drug concentrations were measured before and after a 12-h incubation by liquid-chromatography-coupled mass spectrometry (LC–MS)", "settings": "2 µM"}, "[4]": {"assay": "The drug is tested on Providencia rettgeri strain: DSM1131 for biotransformation. The drug concentrations were measured before and after a 12-h incubation by liquid-chromatography-coupled mass spectrometry (LC–MS)", "type": "ADME", "parameters": "dose 2 uM, timepoint 0 vs 12 hours", "settings": "2 µM"}, "[5]": {"assay": "The drug is tested on Clostridium sporogenes strain: ATCC15579 for biotransformation. The drug concentrations were measured before and after a 12-h incubation by liquid-chromatography-coupled mass spectrometry (LC–MS)", "settings": "2 µM"}, "[6]": {"assay": "The drug is tested on Parabacteroides merdae strain: ATCC43184 for biotransformation. The drug concentrations were measured before and after a 12-h incubation by liquid-chromatography-coupled mass spectrometry (LC–MS)", "settings": "2 µM"}, "[7]": {"assay": "The drug is tested on Bacteroides uniformis strain: ATCC8492 for biotransformation. The drug concentrations were measured before and after a 12-h incubation by liquid-chromatography-coupled mass spectrometry (LC–MS)", "settings": "2 µM"}, "[8]": {"assay": "The drug is tested on Bacteroides fragilis strain: HMW610 for biotransformation. The drug concentrations were measured before and after a 12-h incubation by liquid-chromatography-coupled mass spectrometry (LC–MS)", "settings": "2 µM"}, "[9]": {"settings": "bacteroides thetaiotaomicron, 12 h, 2 µM", "description": "The drug is tested on Bacteroides thetaiotaomicron strain: 7330 for biotransformation. The drug concentrations were measured before and after a 12-h incubation by liquid-chromatography-coupled mass spectrometry (LC–MS)"}, "[10]": {"settings": "limosilactobacillus reuteri cf48-3a, 12 h, 2 µM", "description": "The drug is tested on Lactobacillus reuteri CF48-3A strain: BEI HM-102 for biotransformation. The drug concentrations were measured before and after a 12-h incubation by liquid-chromatography-coupled mass spectrometry (LC–MS)"}, "[11]": {"settings": "roseburia intestinalis, 12 h, 2 µM", "description": "The drug is tested on Roseburia intestinalis strain: L1-82 for biotransformation. The drug concentrations were measured before and after a 12-h incubation by liquid-chromatography-coupled mass spectrometry (LC–MS)"}, "[12]": {"assay": "The drug is tested on Bacteroides fragilis strain: HMW615 for biotransformation. The drug concentrations were measured before and after a 12-h incubation by liquid-chromatography-coupled mass spectrometry (LC–MS)", "settings": "2 µM"}, "[13]": {"assay": "The drug is tested on Bacteroides coprophilus strain: DSM18228 for biotransformation. The drug concentrations were measured before and after a 12-h incubation by liquid-chromatography-coupled mass spectrometry (LC–MS)", "settings": "2 µM"}, "[14]": {"settings": "bacteroides thetaiotaomicron, 12 h, 2 µM", "remark": "listed apart in the source", "description": "The drug is tested on Bacteroides thetaiotaomicron strain: 3731 for biotransformation. The drug concentrations were measured before and after a 12-h incubation by liquid-chromatography-coupled mass spectrometry (LC–MS)"}, "[15]": {"assay": "The drug is tested on Bifidobacterium breve strain: DSM20213 for biotransformation. The drug concentrations were measured before and after a 12-h incubation by liquid-chromatography-coupled mass spectrometry (LC–MS)", "settings": "2 µM"}, "[16]": {"assay": "The drug is tested on Anaerotruncus colihominis strain: DSM17241 for biotransformation. The drug concentrations were measured before and after a 12-h incubation by liquid-chromatography-coupled mass spectrometry (LC–MS)", "settings": "2 µM"}, "[17]": {"assay": "The drug is tested on Coprococcus comes strain: ATCC27758 for biotransformation. The drug concentrations were measured before and after a 12-h incubation by liquid-chromatography-coupled mass spectrometry (LC–MS)", "type": "ADME", "parameters": "dose 2 uM, timepoint 0 vs 12 hours", "settings": "2 µM"}, "[18]": {"assay": "The drug is tested on Clostridium scindens strain: ATCC35704 for biotransformation. The drug concentrations were measured before and after a 12-h incubation by liquid-chromatography-coupled mass spectrometry (LC–MS)", "settings": "2 µM"}, "[19]": {"assay": "The drug is tested on Blautia hansenii strain: DSM20583 for biotransformation. The drug concentrations were measured before and after a 12-h incubation by liquid-chromatography-coupled mass spectrometry (LC–MS)", "settings": "2 µM"}, "[20]": {"settings": "bacteroides intestinalis, 12 h, 2 µM", "description": "The drug is tested on Bacteroides intestinalis strain: DSM17393 for biotransformation. The drug concentrations were measured before and after a 12-h incubation by liquid-chromatography-coupled mass spectrometry (LC–MS)"}},
  "data": [
    {"smiles": "CNNCc1ccc(C(=O)NC(C)C)cc1", "note": "[PROCARBAZINE]", "values": [
      {"measurement": "Bacterial Biotransformation", "setting": "[1]", "value": "Compound NOT metabolized"},
      {"measurement": "Bacterial Biotransformation", "setting": "[2]", "value": "Compound NOT metabolized"},
      {"measurement": "Bacterial Biotransformation", "setting": "[3]", "value": "Compound NOT metabolized"},
      {"measurement": "Bacterial Biotransformation", "setting": "[4]", "value": "Compound NOT metabolized"},
      {"measurement": "Bacterial Biotransformation", "setting": "[5]", "value": "Compound NOT metabolized"},
      {"measurement": "Bacterial Biotransformation", "setting": "[6]", "value": "Compound NOT metabolized"},
      {"measurement": "Bacterial Biotransformation", "setting": "[7]", "value": "Compound NOT metabolized"},
      {"measurement": "Bacterial Biotransformation", "setting": "[8]", "value": "Compound metabolized"},
      {"measurement": "Bacterial Biotransformation", "setting": "[9]", "value": "Compound NOT metabolized"},
      {"measurement": "Bacterial Biotransformation", "setting": "[10]", "value": "Compound NOT metabolized"},
      {"measurement": "Bacterial Biotransformation", "setting": "[11]", "value": "Compound NOT metabolized"},
      {"measurement": "Bacterial Biotransformation", "setting": "[12]", "value": "Compound metabolized"},
      {"measurement": "Bacterial Biotransformation", "setting": "[13]", "value": "Compound NOT metabolized"},
      {"measurement": "Bacterial Biotransformation", "setting": "[14]", "value": "Compound NOT metabolized"},
      {"measurement": "Bacterial Biotransformation", "setting": "[15]", "value": "Compound NOT metabolized"},
      {"measurement": "Bacterial Biotransformation", "setting": "[16]", "value": "Compound NOT metabolized"},
      {"measurement": "Bacterial Biotransformation", "setting": "[17]", "value": "Compound NOT metabolized"},
      {"measurement": "Bacterial Biotransformation", "setting": "[18]", "value": "Compound NOT metabolized"},
      {"measurement": "Bacterial Biotransformation", "setting": "[19]", "value": "Compound NOT metabolized"}
    ]},
    {"smiles": "CC[C@@]1(O)C(=O)OCc2c1cc1n(c2=O)Cc2cc3c(CN(C)C)c(O)ccc3nc2-1", "note": "[TOPOTECAN]", "values": [
      {"measurement": "Bacterial Biotransformation", "setting": "[2]", "value": "Compound NOT metabolized"},
      {"measurement": "Bacterial Biotransformation", "setting": "[3]", "value": "Compound NOT metabolized"},
      {"measurement": "Bacterial Biotransformation", "setting": "[4]", "value": "Compound NOT metabolized"},
      {"measurement": "Bacterial Biotransformation", "setting": "[5]", "value": "Compound NOT metabolized"},
      {"measurement": "Bacterial Biotransformation", "setting": "[6]", "value": "Compound NOT metabolized"},
      {"measurement": "Bacterial Biotransformation", "setting": "[7]", "value": "Compound NOT metabolized"},
      {"measurement": "Bacterial Biotransformation", "setting": "[8]", "value": "Compound NOT metabolized"},
      {"measurement": "Bacterial Biotransformation", "setting": "[20]", "value": "Compound NOT metabolized"},
      {"measurement": "Bacterial Biotransformation", "setting": "[9]", "value": "Compound NOT metabolized"},
      {"measurement": "Bacterial Biotransformation", "setting": "[10]", "value": "Compound NOT metabolized"},
      {"measurement": "Bacterial Biotransformation", "setting": "[11]", "value": "Compound NOT metabolized"},
      {"measurement": "Bacterial Biotransformation", "setting": "[12]", "value": "Compound NOT metabolized"},
      {"measurement": "Bacterial Biotransformation", "setting": "[13]", "value": "Compound NOT metabolized"},
      {"measurement": "Bacterial Biotransformation", "setting": "[14]", "value": "Compound NOT metabolized"},
      {"measurement": "Bacterial Biotransformation", "setting": "[15]", "value": "Compound NOT metabolized"},
      {"measurement": "Bacterial Biotransformation", "setting": "[16]", "value": "Compound NOT metabolized"},
      {"measurement": "Bacterial Biotransformation", "setting": "[17]", "value": "Compound NOT metabolized"},
      {"measurement": "Bacterial Biotransformation", "setting": "[18]", "value": "Compound NOT metabolized"},
      {"measurement": "Bacterial Biotransformation", "setting": "[19]", "value": "Compound NOT metabolized"}
    ]},
    {"smiles": "CC(N)C12CC3CC(CC(C3)C1)C2", "note": "(stereo not drawn) [RIMANTADINE]", "values": [
      {"measurement": "Bacterial Biotransformation", "setting": "[1]", "value": "Compound NOT metabolized"},
      {"measurement": "Bacterial Biotransformation", "setting": "[2]", "value": "Compound NOT metabolized"},
      {"measurement": "Bacterial Biotransformation", "setting": "[3]", "value": "Compound NOT metabolized"},
      {"measurement": "Bacterial Biotransformation", "setting": "[4]", "value": "Compound NOT metabolized"},
      {"measurement": "Bacterial Biotransformation", "setting": "[5]", "value": "Compound NOT metabolized"},
      {"measurement": "Bacterial Biotransformation", "setting": "[6]", "value": "Compound NOT metabolized"},
      {"measurement": "Bacterial Biotransformation", "setting": "[7]", "value": "Compound NOT metabolized"},
      {"measurement": "Bacterial Biotransformation", "setting": "[8]", "value": "Compound NOT metabolized"},
      {"measurement": "Bacterial Biotransformation", "setting": "[20]", "value": "Compound NOT metabolized"},
      {"measurement": "Bacterial Biotransformation", "setting": "[9]", "value": "Compound NOT metabolized"},
      {"measurement": "Bacterial Biotransformation", "setting": "[10]", "value": "Compound NOT metabolized"},
      {"measurement": "Bacterial Biotransformation", "setting": "[11]", "value": "Compound NOT metabolized"},
      {"measurement": "Bacterial Biotransformation", "setting": "[12]", "value": "Compound NOT metabolized"},
      {"measurement": "Bacterial Biotransformation", "setting": "[13]", "value": "Compound NOT metabolized"},
      {"measurement": "Bacterial Biotransformation", "setting": "[14]", "value": "Compound NOT metabolized"},
      {"measurement": "Bacterial Biotransformation", "setting": "[15]", "value": "Compound NOT metabolized"},
      {"measurement": "Bacterial Biotransformation", "setting": "[16]", "value": "Compound NOT metabolized"},
      {"measurement": "Bacterial Biotransformation", "setting": "[17]", "value": "Compound NOT metabolized"},
      {"measurement": "Bacterial Biotransformation", "setting": "[18]", "value": "Compound NOT metabolized"},
      {"measurement": "Bacterial Biotransformation", "setting": "[19]", "value": "Compound NOT metabolized"}
    ]},
    {"smiles": "C[C@]12C=CC(=O)C=C1CC[C@@H]1[C@@H]2C(=O)C[C@@]2(C)[C@H]1CC[C@]2(O)C(=O)CO", "note": "[PREDNISONE]", "values": [
      {"measurement": "Bacterial Biotransformation", "setting": "[1]", "value": "Compound NOT metabolized"},
      {"measurement": "Bacterial Biotransformation", "setting": "[2]", "value": "Compound NOT metabolized"},
      {"measurement": "Bacterial Biotransformation", "setting": "[3]", "value": "Compound NOT metabolized"},
      {"measurement": "Bacterial Biotransformation", "setting": "[4]", "value": "Compound NOT metabolized"},
      {"measurement": "Bacterial Biotransformation", "setting": "[5]", "value": "Compound NOT metabolized"},
      {"measurement": "Bacterial Biotransformation", "setting": "[6]", "value": "Compound NOT metabolized"},
      {"measurement": "Bacterial Biotransformation", "setting": "[7]", "value": "Compound NOT metabolized"},
      {"measurement": "Bacterial Biotransformation", "setting": "[8]", "value": "Compound NOT metabolized"},
      {"measurement": "Bacterial Biotransformation", "setting": "[20]", "value": "Compound NOT metabolized"},
      {"measurement": "Bacterial Biotransformation", "setting": "[9]", "value": "Compound NOT metabolized"},
      {"measurement": "Bacterial Biotransformation", "setting": "[10]", "value": "Compound NOT metabolized"},
      {"measurement": "Bacterial Biotransformation", "setting": "[11]", "value": "Compound NOT metabolized"},
      {"measurement": "Bacterial Biotransformation", "setting": "[12]", "value": "Compound NOT metabolized"},
      {"measurement": "Bacterial Biotransformation", "setting": "[13]", "value": "Compound NOT metabolized"},
      {"measurement": "Bacterial Biotransformation", "setting": "[14]", "value": "Compound NOT metabolized"},
      {"measurement": "Bacterial Biotransformation", "setting": "[15]", "value": "Compound NOT metabolized"},
      {"measurement": "Bacterial Biotransformation", "setting": "[16]", "value": "Compound NOT metabolized"},
      {"measurement": "Bacterial Biotransformation", "setting": "[17]", "value": "Compound NOT metabolized"},
      {"measurement": "Bacterial Biotransformation", "setting": "[18]", "value": "Compound NOT metabolized"},
      {"measurement": "Bacterial Biotransformation", "setting": "[19]", "value": "Compound NOT metabolized"}
    ]}
  ]
}
